Legend:
H3b variant = H3b variant (Homo sapiens, UniProt Q9Y5N1, E19D); conditions: COS-7 cells transfected with H3b; 1 μM BODIPY-L-Histamine or Fluorescein Histamine in PBS, 37° C., 30 min; compared with H3a wild type
Experimental: (§1) The full length wild type receptor (H3a) and receptor variants H3g and H3h, as well as the variant H3b (which contains the 240 base, 80 amino acid deletion in intracellular loop 3 (i3) but not the N-terminal 108 base, 36 amino acid deletion), were cloned in pCDNA3.0 eukaryotic expression vector for expression in COS-7 cells. The COS-7 cells grown in culture chambers were transfected with 2 μg of plasmid DNA containing one of the H3 receptor or receptor variants with superfect (Qiagen) transfection reagent.
(§2) Binding of Histamine to receptor or receptor variant was determined by BODIPY-L-Histamine or Fluorescein Histamine (Molecular Probes). Briefly, the transfected cells were washed with PBS and 1 μM of BODIPY-L-Histamine or Fluorescein Histamine in PBS was added to the cells and incubated at 37° C. for 30 min. Unbound fluorescent labeled histamine was washed in cold PBS and the slides were examined immediately under a fluorescent microscope.

H3g receptor variant = H3g receptor variant (Homo sapiens, UniProt Q9Y5N1, DEL7-42); conditions: COS-7 cells transfected with H3g; 1 μM BODIPY-L-Histamine or Fluorescein Histamine in PBS, 37° C., 30 min; compared with H3a wild type
Experimental: as §1, §2

H3h receptor variant = H3h receptor variant (Homo sapiens, UniProt Q9Y5N1, DEL7-42); conditions: COS-7 cells transfected with H3h; 1 μM BODIPY-L-Histamine or Fluorescein Histamine in PBS, 37° C., 30 min; compared with H3a wild type
Experimental: as §1, §2

H3g receptor variant, sequence (Q9Y5N1 with tags, fused parts or gaps DEL7-42): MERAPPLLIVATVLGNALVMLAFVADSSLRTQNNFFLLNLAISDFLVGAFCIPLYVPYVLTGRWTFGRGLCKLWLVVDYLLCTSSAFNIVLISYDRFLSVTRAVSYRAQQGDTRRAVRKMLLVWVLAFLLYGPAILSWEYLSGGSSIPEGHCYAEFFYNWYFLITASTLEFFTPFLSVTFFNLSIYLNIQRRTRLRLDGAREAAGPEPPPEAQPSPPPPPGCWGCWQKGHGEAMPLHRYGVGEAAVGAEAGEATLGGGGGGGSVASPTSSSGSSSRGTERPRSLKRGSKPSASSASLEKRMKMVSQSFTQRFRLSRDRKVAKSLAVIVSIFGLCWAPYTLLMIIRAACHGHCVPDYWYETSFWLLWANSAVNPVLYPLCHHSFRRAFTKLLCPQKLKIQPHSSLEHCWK
H3b variant, sequence (Q9Y5N1 1-365 isoform Q9Y5N1-3 E19D): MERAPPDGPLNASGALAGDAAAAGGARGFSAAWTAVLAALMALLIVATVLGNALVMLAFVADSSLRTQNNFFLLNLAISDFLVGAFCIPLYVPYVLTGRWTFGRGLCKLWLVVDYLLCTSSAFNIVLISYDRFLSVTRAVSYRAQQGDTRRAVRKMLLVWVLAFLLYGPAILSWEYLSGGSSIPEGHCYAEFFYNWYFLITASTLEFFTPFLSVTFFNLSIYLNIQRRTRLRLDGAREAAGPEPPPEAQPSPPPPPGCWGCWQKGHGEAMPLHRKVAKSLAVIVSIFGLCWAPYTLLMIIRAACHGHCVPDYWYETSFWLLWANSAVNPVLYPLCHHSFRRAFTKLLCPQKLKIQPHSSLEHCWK
H3h receptor variant, sequence (Q9Y5N1 with tags, fused parts or gaps isoform Q9Y5N1-3 DEL7-42): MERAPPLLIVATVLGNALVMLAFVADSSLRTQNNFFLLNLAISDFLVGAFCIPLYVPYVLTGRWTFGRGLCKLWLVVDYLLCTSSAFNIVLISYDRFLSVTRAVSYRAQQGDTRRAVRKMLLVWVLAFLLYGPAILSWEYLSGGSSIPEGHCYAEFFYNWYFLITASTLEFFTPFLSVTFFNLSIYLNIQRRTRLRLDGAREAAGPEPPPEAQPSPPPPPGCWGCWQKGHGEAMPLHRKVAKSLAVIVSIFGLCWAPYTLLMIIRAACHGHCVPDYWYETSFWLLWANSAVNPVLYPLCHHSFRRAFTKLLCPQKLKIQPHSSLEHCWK

Question: Which histamine binding (H3b variant) does the source give for `NCCc1c[nH]cn1` [histamine] here?
Answer: The histamine binding was “comparable to the cell transfected with the H3a wild type receptor”.

Question: What about the histamine binding (H3g receptor variant) of the same compound?
Answer: Its histamine binding is “comparable to the cell transfected with the H3a wild type receptor”.

Question: And the histamine binding (H3h receptor variant)?
Answer: Its histamine binding is “comparable to the cell transfected with the H3a wild type receptor”.
